According to patent publication US20090123501A1, “INHIBITION OF THE SH2-DOMAIN CONTAINING PROTEIN TYR-PHOSPHATASE, SHP-1, TO ENHANCE VACCINES” (Baylor College of Medicine, priority 2007, published 2009):

Key:
TRAMP C2 tumors = experiment: DC vaccination of mice bearing ectopic TRAMP C2 tumors; type: in vivo, C57BL/6 mice; details: for TRAMP C2 tumor growth (growth curves, mean tumor volumes): by peptide loaded on DC vaccine, single i.p. vaccination 2×10^6 DCs, vs untreated mice; for TRAMP C2 tumor growth rate (mean tumor volume at day 48 post-vaccination, ANOVA): by peptide, pooled across viral treatments, vs no vaccination
Method: BMDCs were prepared as described above, transduced with either Ad5-SHP-1-shRNA or the control Ad5-scrambled-shRNA at 40,000 viral particles/cell, and pulsed with one of the six peptides listed in Table 1 (OVA, an irrelevant epitope to TRAMP 2 tumors, served as a negative control peptide) or a lysate of TRAMP C2 cells as a positive control antigen. 6-8 week C57BL/6 mice, bearing TRAMP C2 tumors (7×10^6 cells injected s.c. on the dorsal flank three days prior to vaccination), were given a single i.p. vaccination with 2×10^6 treated DCs or left untreated. Tumors were measured (length and width using calipers) every 2-4 days until termination of the study and tumor volume was estimated using the formula: Tumor volume (mm3)=x^2y×0.5236, where x is the smaller tumor dimension, and y is the larger tumor dimension. A-G) TRAMP tumor growth curves for vaccines loaded with the indicated peptides. Error bars represent the standard error of the mean of 5 mice vaccinated in each treatment. […] H-I) ANOVA analysis of peptide function and SHP-1 function. Data represent the averages 10 mice per peptide treatment and 5 mice in the no treatment control group for H) and 35 mice per viral transduction treatment and 5 mice in the no treatment control group for I). The green diamonds represent the mean and 95% confidence interval for each group from the ANOVA. The black line is the mean of means for the study and red symbols indicate significant differences (p<0.05 by Tukey-Kramer HSD multiple comparisons test).
To determine if there was a significant difference between the various peptides used in these DC vaccinations, mice were pooled across viral treatments (Ad5-SHP-1 shRNA or Ad5-scrambled-shRNA) employing the same peptide. An ANOVA for differences in mean tumor volume at day 48 post-vaccination (the time at which the majority of the vaccinated tumor growth curves change slope) and Tukey-Kramer HSD multiple comparisons test.
Next experiments were conducted to determine if vaccines transduced with Ad5-SHP-1-shRNA inhibited tumor growth compared to transduction with Ad5-scrambled-shRNA or no vaccine treatment, irrespective of what peptide was used in the vaccine.

total splenocytes = experiment: T cell subsets in total splenocytes 7 days after DC vaccination, flow cytometry; type: in vivo, C57BL/6 mice; details: by peptide, viral treatments pooled, day 7, vs no treatment control
Method: To determine the effect of SHP-1 inhibition on the initiation of T cell responses, BMDCs were cultured and CD11c^+ MACS purified as described above. […] Following peptide loading DCs were left untreated or transduced with one of 3 different adenoviral vectors: 1) Ad5-SHP-1-shRNA; 2) Ad5-scrambled-shRNA; or 3) Ad5-CMV-empty, an adenovirus carrying a CMV promoter expression vector but no insert. […] Using all combinations of peptide and virus treatment yielded 9 experimental vaccines and one no vaccine control. Vaccines (2×10^6 DCs) were injected i.p. into wt C57BL/6 mice. Seven days following vaccination mice were sacrificed and total splenocytes were analyzed by multi-color flow cytometry for the expression of several T cell subsets. CD3^+ CD8^+IFNγ^+ cells were characterized as CTL effectors, CD3^+ CD4^+IFNγ^+ cells were characterized as Th1 helper T cells, and CD4^+ FOXP3^+ cells were characterized as Treg cells. Flow cytometry data were analyzed by one-way analysis of variance (ANOVA) and Tukey-Kramer HSD multiple comparisons test for percentage of cells falling within each population following treatment. Cells were stained with anti-CD3, anti-CD8 and anti IFNγ to differentiate CD8^+ effectors and CD4^+ Th1 T cell skewing or anti-CD4 and anti-FOXP3 to determine Tregs. To determine if there was a peptide specific effects between the 3 different tumor antigens, viral treatments were pooled for each peptide exposure. Data represent the averages 6 mice per peptide treatment group and 2 mice in the no treatment control group. No significant differences were seen between peptides in the induction of Tregs or CD8^+ effector cells.
(§1) Following peptide loading DCs were left untreated or transduced with one of 3 different adenoviral vectors: 1) Ad5-SHP-1-shRNA; 2) Ad5-scrambled-shRNA; or 3) Ad5-CMV-empty, an adenovirus carrying a CMV promoter expression vector but no insert. Vaccines were injected i.p. into wt C57BL/6 mice and T cell skewing analyzed 7 days later by flow cytometry from total splenocytes. Cells were stained with anti-CD3, anti-CD8 and anti IFNγ for effector and Th1 cells or anti-CD4 and anti-FOXP3 for Tregs. For the peptide specific analysis viral treatments were pooled for each peptide exposure. Data represent the averages 6 mice per peptide treatment and two mice in the no treatment control group. The green diamonds represent the mean and 95% confidence interval for each group from the ANOVA. The black line is the mean of means for the study and red asterisk (*) indicates significant differences (p<0.05 by Tukey-Kramer HSD multiple comparisons test).
as §1, with “the SHP-1” for “the peptide”, “each viral treatment.” for “each peptide exposure.”, “and 2” for “and two”, “ANOVA. […]” for “ANOVA. The black line is the mean of means for the study and red asterisk (*) indicates significant differences (p<0.05 by Tukey-Kramer HSD multiple comparisons test).”

H-2D^b [1] = molecular target: T1, H-2D^b (Mus musculus, UniProt P01899); experiment: MHC class I surface stabilization assay on RMA-S cells, H-2Db; type: binding; details: RMA-S cells pulsed with peptide overnight, flow cytometry
T1 construct: lower relative expression of H-2D^b on RMA-S cells compared to H-2K^b; endogenous in cells; host or cells: RMA-S
T1 sequence (P01899 25-362): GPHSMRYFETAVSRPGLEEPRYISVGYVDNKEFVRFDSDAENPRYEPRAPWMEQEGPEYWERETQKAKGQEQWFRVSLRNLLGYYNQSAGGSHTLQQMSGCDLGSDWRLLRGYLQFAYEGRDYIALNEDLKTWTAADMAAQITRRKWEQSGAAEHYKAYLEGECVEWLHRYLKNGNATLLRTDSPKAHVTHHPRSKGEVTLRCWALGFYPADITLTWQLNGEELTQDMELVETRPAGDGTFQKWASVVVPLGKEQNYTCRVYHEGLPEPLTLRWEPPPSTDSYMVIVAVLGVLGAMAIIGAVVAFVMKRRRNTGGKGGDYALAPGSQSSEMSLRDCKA
T1 sequence (P01887 21-119 partner): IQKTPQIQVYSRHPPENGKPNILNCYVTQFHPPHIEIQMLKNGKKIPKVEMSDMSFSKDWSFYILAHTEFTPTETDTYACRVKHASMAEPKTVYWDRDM
Method: (§2) 10^6 RMA-S cells were incubated overnight at 37° C. with each of the five predicted at the concentrations indicated. Cells were stained with antibodies for H-2K^b (Y-3; ATCC-HB176) or H-2D^b (28-14-8S; ATCC-HB27) followed by a goat anti-mouse-FITC second step and MHC class I surface expression was analyzed by flow cytometry. Specific MFI is the mean fluorescent intensity of the sample-mean fluorescent intensity of goat anti-mouse-FITC second step alone. Error bars represent the standard deviation of triplicate measurements.
(§3) The binding affinity of the five predicted peptides was tested. In a surface stabilization assay using the TAP1 deficient cell line RMA-S. RMA-S cells were pulsed with peptide, at the indicated concentrations, and incubated overnight. Cells were stained with antibodies for H-2K^b (Y-3; ATCC-HB176) or H-2D^b (28-14-8S; ATCC-HB27) followed by a fluorescent-labeled secondary antibody and MHC class I surface expression was analyzed by flow cytometry.

AP-1 signaling = experiment: AP-1-dependent secreted alkaline phosphatase reporter in RAW cells; type: cell-based, murine; details: transient transfection, IFNγ or LPS stimulation
Method: Function of the mutant and wt SHP-1 constructs was tested in RAW cells by transient transfection of SHP-1 vectors along with a reporter construct expressing a secreted alkaline phosphatase driven by either an NFκB or AP-1 dependent promoter. NFκB and AP-1 are major transcription factors stimulated by toll-like receptor (TLR) and cytokine signaling in immune system cells, and represent likely pathways of SHP-1 inhibition on cellular activation. Cells were transfected with the appropriate construct, reporter and then stimulated with interferon-γ (IFNγ) or bacterial lipopolysaccharide (LPS) as ligands for cytokine and TLR receptors respectively.

H-2K^b = molecular target: T2, H-2K^b (mouse, UniProt P01887 21-119; P01901 22-305, limits assumed); experiment: RMA-S surface stabilization assay, flow cytometry with antibody Y-3
T2 construct: whole, on cells;extracellular; MHC class I on RMA-S cells, detected with antibody Y-3 (ATCC-HB176) in a surface stabilization assay; also called MHC class 1 molecule H-2K^b
T2 sequence (MHC heavy, looked up): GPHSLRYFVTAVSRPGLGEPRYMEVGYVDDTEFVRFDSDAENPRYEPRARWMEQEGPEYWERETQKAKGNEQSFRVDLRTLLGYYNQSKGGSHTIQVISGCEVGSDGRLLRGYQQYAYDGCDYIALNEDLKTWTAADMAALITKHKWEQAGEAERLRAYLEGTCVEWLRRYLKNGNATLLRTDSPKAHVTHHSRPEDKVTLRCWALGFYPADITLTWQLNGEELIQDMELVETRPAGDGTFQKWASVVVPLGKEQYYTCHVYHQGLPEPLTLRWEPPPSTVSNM
T2 sequence (b2m, looked up): T1 sequence (P01887 21-119 partner)
Method: as §2, with “10⁶” for “10^6”, “measurements. This is representative of 3 separate studies.” for “measurements.”
as §3, with “cytometry. […] STEAP₈₄₋₉₁ and STEAP₁₈₆₋₁₉₂ bound with an affinity near that of OVA₂₅₈₋₂₆₅, a well characterized strong binding H-2K^b epitope from chicken ovalbumin. […]” for “cytometry.”

H-2D^b [2] = molecular target: T3, H-2D^b (mouse, UniProt P01887 21-119; P01899 25-309); experiment: RMA-S surface stabilization assay, flow cytometry with antibody 28-14-8S
T3 construct: whole, on cells;extracellular; MHC class I on RMA-S cells, detected with antibody 28-14-8S (ATCC-HB27) in a surface stabilization assay; also called MHC class 1 molecule H-2D^b
T3 sequence (MHC heavy, looked up): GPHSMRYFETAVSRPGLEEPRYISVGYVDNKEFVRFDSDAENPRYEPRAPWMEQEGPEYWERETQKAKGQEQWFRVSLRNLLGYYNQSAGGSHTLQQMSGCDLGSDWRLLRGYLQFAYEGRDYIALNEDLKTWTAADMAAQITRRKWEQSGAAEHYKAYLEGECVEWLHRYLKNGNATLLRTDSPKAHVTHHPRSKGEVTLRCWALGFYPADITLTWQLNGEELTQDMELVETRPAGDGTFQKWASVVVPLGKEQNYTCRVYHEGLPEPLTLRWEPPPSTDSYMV
T3 sequence (b2m, looked up): T1 sequence (P01887 21-119 partner)
Method: as §2, with “10⁶” for “10^6”, “measurements. This is representative of 3 separate studies.” for “measurements.”
as §3, with “cytometry. […] STEAP₈₄₋₉₁ and STEAP₁₈₆₋₁₉₂ bound with an affinity near that of OVA₂₅₈₋₂₆₅, a well characterized strong binding H-2K^b epitope from chicken ovalbumin. […]” for “cytometry.”

## SIINFEKL [OVA258-265, reference compound]
TRAMP C2 tumors
  TRAMP C2 tumor growth (growth curves, mean tumor volumes): equivalent to mice receiving no vaccine treatment

## VSKINRTEM [STEAP327-335]
TRAMP C2 tumors
  TRAMP C2 tumor growth (growth curves, mean tumor volumes): strong inhibition of tumor growth
  TRAMP C2 tumor growth rate (mean tumor volume at day 48 post-vaccination, ANOVA): significant decrease in tumor growth rate
Total splenocytes
  Th1 skewing: significant
H-2D^b [1]
  relative binding affinity to H-2Db (MHC class I surface expression): did not appear to bind as well as some of the other peptides

## ca-SHP-1: constitutively active SHP-1 mutant with N-terminal SH2 domain deleted, HA-tagged (SEQ ID NO:9)
AP-1 signaling
  AP-1 signaling: suppressing AP-1 signaling

## LLLGTVHAL [STEAP262-270]
H-2D^b [1]
  relative binding affinity to H-2Db (MHC class I surface expression): no detectable binding at any peptide concentration

## SVYDFFVWL [Trp-2, reference compound]
Total splenocytes
  Th1 skewing: significant

## AQMNNRDCL [PSCA29-37]
TRAMP C2 tumors
  TRAMP C2 tumor growth (growth curves, mean tumor volumes): strong inhibition of tumor growth
  TRAMP C2 tumor growth rate (mean tumor volume at day 48 post-vaccination, ANOVA): significant decrease in tumor growth rate
H-2D^b [1]
  relative binding affinity to H-2Db (MHC class I surface expression): did not appear to bind as well as some of the other peptides

B1: STEAP84-91 (peptide)
peptide: LTFLYTLL
H-2K^b
  binding result: binds

B2: STEAP327-335 (peptide)
peptide: VSKINRTEM
H-2D^b [2]
  binding result: binds

B3: STEAP186-192 (peptide)
peptide: RSYRYKLL
H-2K^b
  binding result: binds

B4: PSCA29-37 (peptide)
peptide: AQMNNRDCL
H-2D^b [2]
  binding result: binds
